Target: T1, human GPBAR1 receptor (Homo sapiens, UniProt Q8TDU6)
T1 construct: expressed in transfected cells
T1 sequence (Q8TDU6 1-330): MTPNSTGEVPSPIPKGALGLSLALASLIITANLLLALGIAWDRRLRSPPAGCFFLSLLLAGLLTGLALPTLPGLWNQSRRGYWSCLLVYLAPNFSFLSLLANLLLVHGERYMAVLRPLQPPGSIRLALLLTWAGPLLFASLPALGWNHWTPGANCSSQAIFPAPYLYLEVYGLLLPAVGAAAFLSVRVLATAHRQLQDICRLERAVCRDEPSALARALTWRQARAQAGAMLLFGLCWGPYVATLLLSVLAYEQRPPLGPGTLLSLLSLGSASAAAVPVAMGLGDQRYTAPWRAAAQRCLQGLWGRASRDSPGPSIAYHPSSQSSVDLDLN
Experiment: functional cAMP assay in CHO-dhfr(minus) cells expressing human GPBAR1 receptors
Format: cell-based
Settings: human EC50, functional cAMP assay, 30 min at 30° C.
Description: The final clone was verified by DNA sequence analysis. The plasmid was transfected into CHO cells deficient in dihydrofolate reductase activity (CHO-dhfr−) using Lipofectamine plus (Invitrogen). Clones were isolated in limited dilution conditions and identified by activities in the cAMP assay using lithocholic acid as agonist.
The growth medium was exchanged with Krebs Ringer Bicarbonate buffer with 1 mM IBMX and incubated at 30° C. for 30 min. Compounds were added to a final assay volume of 100 μl and incubated for 30 min at 30° C. […] The time-resolved energy transfer is measured by a TRF reader (Evotec Technologies GmbH, Hamburg Germany), equipped with a ND:YAG laser as excitation source.
EC50 values were determined using Activity Base analysis (ID Business Solution, Limited). […] Specificity for GPBAR1 was tested in non-transfected CHO cells in the same assay as above.

Row | Structure (SMILES) | EC50 [nM]
1 | CCCC(C/C(=N\O)c1ccc(=O)n(C)c1)c1ccc(Br)cc1 (stereo not shown) [Example 174, 5-{3-(4-Bromo-phenyl)-1-[(E)-hydroxyimino]-hexyl}-1-methyl-1H-pyridin-2-one] | 268
2 | Cn1cc(/C(CC(c2ccc(C(=O)NCC(F)(F)F)c(F)c2)c2ccccc2Cl)=N/O)ccc1=O (stereo not shown) [Example 234, (E)-4-(1-(2-Chlorophenyl)-3-(hydroxyimino)-3-(1-methyl-6-oxo-1,6-dihydropyridin-3-yl)propyl)-2-fluoro-N-(2,2,2-trifluoroethyl)benzamide] | 380
3 | Cc1cc(/C(CC(c2ccc(Br)cc2)c2ncccc2C)=N/O)ccn1 (stereo not shown) [Example 116, (E)-3-(4-Bromo-phenyl)-3-(3-methyl-pyridin-2-yl)-1-(2-methyl-pyridin-4-yl)-propan-1-one oxime] | 5
4 | Cc1cc(C(CC(c2ccc(Br)cc2)C(C)(C)C)=NO)ccn1 (racemic) [Example 129, 3-(4-Bromo-phenyl)-4,4-dimethyl-1-(2-methyl-pyridin-4-yl)-pentan-1-one oxime] | 591
5 | Cc1ccccc1C(C/C(=N\O)c1ccc(=O)n(C)c1)c1ccc(C(=O)NC(CO)CO)cc1 (stereo not shown) [Example 304, (E)-N-(1,3-Dihydroxypropan-2-yl)-4-(3-(hydroxyimino)-3-(1-methyl-6-oxo-1,6-dihydropyridin-3-yl)-1-o-tolylpropyl)benzamide] | 506
6 | CC(=O)NCCNC(=O)c1ccc(C(C/C(=N\O)c2ccc(=O)n(C)c2)c2ccccc2C)cc1 (stereo not shown) [Example 246, (E)-N-(2-Acetamidoethyl)-4-(3-(hydroxyimino)-3-(1-methyl-6-oxo-1,6-dihydropyridin-3-yl)-1-o-tolylpropyl)benzamide] | 2180
7 | Cc1cc(/C(CC(c2cccc(-c3cccc(C(=O)NCC(=O)O)c3)c2)c2ccccc2C)=N/O)ccn1 (stereo not shown) [Example 108, ({3′-[3-[(E)-Hydroxyimino]-3-(2-methyl-pyridin-4-yl)-1-o-tolyl-propyl]-biphenyl-3-carbonyl}-amino)-acetic acid] | 76
8 | COCCOCCn1cc(/C(CC(c2ccc(S(C)(=O)=O)cc2)c2ccc(Cl)cc2C)=N/O)ccc1=O (stereo not shown) [Example 339, (E)-5-(3-(4-chloro-2-methylphenyl)-1-(hydroxyimino)-3-(4-(methylsulfonyl)phenyl)propyl)-1-(2-(2-methoxyethoxy)ethyl)pyridin-2(1H)-one] | 90
9 | Cc1ccccc1C(C/C(=N\O)c1ccc(=O)n(C)c1)c1ccc(Oc2ccc(C(=O)O)c(F)c2)cc1F (stereo not shown) [Example 222, 2-Fluoro-4-{3-fluoro-4-[3-[(E)-hydroxyimino]-3-(1-methyl-6-oxo-1,6-dihydro-pyridin-3-yl)-1-o-tolyl-propyl]-phenoxy}-benzoic acid] | 3590
10 | Cc1cc(/C(CC(c2ccccc2)c2ccccc2)=N/O)cc(F)n1 [Example 56, (E)-1-(2-Fluoro-6-methyl-pyridin-4-yl)-3,3-diphenyl-propan-1-one oxime] | 203
11 | Cc1cc(C(C[C@@H](c2ccc(-c3ccc(C(=O)N[C@H](C)c4ccccc4)cc3)cc2)c2ccccc2C)=NO)ccn1 (racemic) [Example 97, 4′-[(S)-3-[Hydroxyimino]-3-(2-methyl-pyridin-4-yl)-1-o-tolyl-propyl]-biphenyl-4-carboxylic acid ((R)-1-phenyl-ethyl)-amide] | 177
12 | Cc1cc(C(=O)O)ccc1-c1ccc([C@@H](C/C(=N\O)c2ccc(=O)n(C)c2)c2ccc(Cl)cc2F)cc1 (single isomer, unassigned) [Example 465, 4′-[(−)-1-(4-Chloro-2-fluoro-phenyl)-3-[(E)-hydroxyimino]-3-(1-methyl-6-oxo-1,6-dihydro-pyridin-3-yl)-propyl]-2-methyl-biphenyl-4-carboxylic acid] | 350
13 | Cn1cc(/C(CC(c2ccc(-c3ccc(C(=O)O)cc3)cc2)c2ccc(Cl)cc2F)=N/O)ccc1=O (single isomer, unassigned; (+)) [Example 241, (+)-4′-[1-(4-Chloro-2-fluoro-phenyl)-3-[(E)-hydroxyimino]-3-(1-methyl-6-oxo-1,6-dihydro-pyridin-3-yl)-propyl]-biphenyl-4-carboxylic acid] | 170
14 | Cc1cc(C(C[C@@H](c2ccc(-c3ccc(C(=O)N[C@@H](C)C(=O)O)cc3)cc2)c2ccccc2C)=NO)ccn1 (racemic) [Example 95, (S)-2-({4′-[(S)-3-[Hydroxyimino]-3-(2-methyl-pyridin-4-yl)-1-o-tolyl-propyl]-biphenyl-4-carbonyl}-amino)-propionic acid] | 39
15 | Cc1ccccc1[C@H](C/C(=N\O)c1cc(Cl)ncc1F)c1ccc(-c2ccc(C(=O)O)cc2)cc1 [Example 292, 4′-{(R)-3-(2-Chloro-5-fluoro-pyridin-4-yl)-3-[(E)-hydroxyimino]-1-o-tolyl-propyl}-biphenyl-4-carboxylic acid] | 6
16 | Cc1ccccc1[C@H](C/C(=N\O)c1cc(Cl)nc(Cl)c1)c1ccc(-c2ccc(C(=O)O)cc2)cc1 [Example 146, (E,R)-4′-(3-(2,6-Dichloropyridin-4-yl)-3-(hydroxyimino)-1-o-tolylpropyl)biphenyl-4-carboxylic acid] | 164
17 | Cc1cc(Cl)ccc1[C@H](C/C(=N\O)c1ccc(=O)n(C)c1)c1ccc(-c2ccc(C(=O)O)cc2)cc1 (single isomer, unassigned) [Example 393, (+)-4′-[1-(4-Chloro-2-methyl-phenyl)-3-[(E)-hydroxyimino]-3-(1-methyl-6-oxo-1,6-dihydro-pyridin-3-yl)-propyl]-biphenyl-4-carboxylic acid; compound with triethylamine 1:0.9] | 95
18 | CC(C)CC(C/C(=N\O)c1ccc(=O)n(C)c1)c1ccc(Br)cc1 (stereo not shown) [Example 170, 5-{3-(4-Bromo-phenyl)-1-[(E)-hydroxyimino]-5-methyl-hexyl}-1-methyl-1H-pyridin-2-one] | 453
19 | Cn1cc(/C(CC(c2ccc(-c3ccc(CC(=O)O)cc3)cc2)c2ccc(Cl)cc2F)=N/O)ccc1=O (stereo not shown) [Example 460, {4′-[1-(4-Chloro-2-fluoro-phenyl)-3-[(E)-hydroxyimino]-3-(1-methyl-6-oxo-1,6-dihydro-pyridin-3-yl)-propyl]-biphenyl-4-yl}-acetic acid] | 421
20 | Cc1cc(Cl)ccc1C(C/C(=N\O)c1ccc(=O)n(C)c1)c1ccc(S(C)(=O)=O)cc1 (single isomer, unassigned; (-)) [Example 333, (−)-(E)-5-(3-(4-Chloro-2-methylphenyl)-1-(hydroxyimino)-3-(4-(methylsulfonyl)phenyl)-propyl)-1-methylpyridin-2(1H)-one] | 73
21 | Cn1cc(/C(CC(c2ccc(S(C)(=O)=O)cc2)c2ccc(Cl)cc2F)=N/O)ccc1=O (stereo not shown) [Example 314, (E)-5-(3-(4-chloro-2-fluorophenyl)-1-(hydroxyimino)-3-(4-(methylsulfonyl)phenyl)propyl)-1-methylpyridin-2(1H)-one] | 84
22 | Cc1ccccc1C(C/C(=N/O)c1ccncc1)c1ccc(-c2cncnc2)cc1 (single isomer, unassigned; (+)) [Example 38, (+)-(Z)-1-pyridin-4-yl-3-(4-pyrimidin-5-yl-phenyl)-3-o-tolyl-propan-1-one oxime] | 7650
23 | ON=C(CC1c2ccccc2-c2ccccc21)c1ccncc1 (racemic) [Example 61, 2-(9H-Fluoren-9-yl)-1-pyridin-4-yl-ethanone oxime] | 4590
24 | Cc1ccccc1C(C/C(=N\O)c1ccc(=O)n(C)c1)c1ccc(C(=O)NC[C@@H](O)CO)cc1 (stereo partly drawn) [Example 307, N—((R)-2,3-Dihydroxypropyl)-4-((E)-3-(hydroxyimino)-3-(1-methyl-6-oxo-1,6-dihydro-pyridin-3-yl)-1-o-tolylpropyl)benzamide] | 116
25 | Cc1cc(Cl)ccc1C(C/C(=N\O)c1ccc(=O)n(C)c1)c1ccc(NS(=O)(=O)C2CC2)cc1 (stereo not shown) [Example 354, Cyclopropanesulfonic acid {4-[1-(4-chloro-2-methyl-phenyl)-3-[(E)-hydroxyimino]-3-(1-methyl-6-oxo-1,6-dihydro-pyridin-3-yl)-propyl]-phenyl}-amide] | 489
26 | Cc1cc(C(CC(c2ccc(C#CCCC(=O)O)cc2)c2ccccc2C)=NO)ccn1 (racemic) [Example 111, 5-{4-[3-[Hydroxyimino]-3-(2-methyl-pyridin-4-yl)-1-o-tolyl-propyl]-phenyl}-pent-4-ynoic acid] | 27
27 | Cc1cc(/C(C[C@H](c2ccc(N3CCC(C(=O)O)CC3)cc2)c2ccc(F)cc2F)=N/O)ccn1 (single isomer, unassigned) [Example 427, 1-{4-[(−)-1-(2,4-Difluoro-phenyl)-3-[(E)-hydroxyimino]-3-(2-methyl-pyridin-4-yl)-propyl]-phenyl}-piperidine-4-carboxylic acid] | 4
28 | Cc1ccccc1C(C/C(=N\O)c1ccc(=O)n(C)c1)c1ccc(C(=O)N[C@H](C)CO)cc1 (stereo partly drawn) [Example 301, 4-((E)-3-(Hydroxyimino)-3-(1-methyl-6-oxo-1,6-dihydropyridin-3-yl)-1-o-tolylpropyl)-N-((R)-1-hydroxypropan-2-yl)benzamide] | 4100

Source: US8765730B2 (Hoffmann-La Roche Inc, priority 2010, dated 2014)
